This is an account of results in patent publication US11407768B2, “AMPK activators” (Kallyope, Inc., priority 2020, dated 2022).

As usually defined, the Papp A→B is how fast a substance crosses the layer from the apical side. In general, Papp B→A refers to how fast a substance crosses the layer from the basolateral side. Usually efflux ratio stands for the permeability from basolateral to apical divided by that in the opposite direction, in the common usage. In general, bioavailability refers to dose-corrected exposure relative to a reference, in per cent. Read a high bioavailability as much systemic uptake. Broadly, the EC50 is the concentration needed to bring the measured effect to its halfway point.

One series in a line: in vitro. The conditions noted are these: human. As to the method: (§1) Caco-2 cells purchased from ATCC were seeded onto […] (PET) in 96-well BD Insert plates at 1×10^5 cells/cm^2, and refreshed medium every 4-5 days until to the 21st to 28th day for confluent cell monolayer formation. The transport buffer in the study was HBSS with 10 mM HEPES at pH 7.40±0.05. Test compounds were tested at 2 μM bi-directionally in duplicate. Digoxin was tested at 10 μM bi-directionally in duplicate, while nadolol and metoprolol were tested at 2 μM in A to B direction in duplicate. Final DMSO concentration was adjusted to less than 1%.
(§2) The plate was incubated for 2 hours in CO2 incubator at 37±1° C., with 5% CO2 at saturated humidity without shaking. All samples were mixed with acetonitrile containing internal standard and were centrifuged at 4000 rpm for 10 min. Subsequently, 100 μL supernatant solution was diluted with 100 μL distilled water for LC/MS/MS analysis. Concentrations of test and control compounds in starting solution, donor solution, and receiver solution were quantified by LC/MS/MS, using peak area ratio of analyte/internal standard.

The subject of a further series is Caco-2 cells. The series can be described thus: in vitro. As to the method: as §1, §2
Series [1] relates to Madin-Darby Canine Kidney (MDCK) cells. The series can be described thus: In vitro MDCK epithelial permeability assay (calcium switch, FITC-dextran). The class given is cell-based. The conditions noted are these: low calcium medium, MDCK monolayers. From the text:
In order to quantitatively measure the effects of transporter substrate AMPK activators on epithelial permeability in vitro, standard calcium switch protocols from the literature were adapted for use with Madin-Darby Canine Kidney (MDCK) cells grown on Corning Transwell inserts for use with fluorescein isothiocyanate-dextran, average molecular weight 4 kDa (FITC-dextran). FITC-dextran is a large, metabolically inert sugar molecule that is not readily transferrable across healthy epithelial barriers in vitro or in vivo. This compound has been tagged with a fluorophore to easily track its movement.
Briefly, MDCK cells were seeded onto Transwell inserts and grown according to manufacturer instructions until confluent. On the day of the experiment, a baseline reading was taken in standard growth media in which FITC-dextran was spiked into the apical chamber and the percent permeation of FITC-dextran from the apical to the basolateral chamber was measured. The inserts were then washed in low calcium medium (LCM) containing either vehicle or compound to remove residual FITC-dextran and calcium, and FITC-dextran was once again spiked into the apical chamber and the percent permeation in LCM was measured. […] The fold induction of FITC-dextran permeation to the basolateral chamber when each well was transferred from baseline growth media to LCM was then calculated.

Series [2] is described as follows: Pharmacokinetics (oral bioavailability) in C57BL/6 mice. The conditions noted are these: mouse, in vivo; for bioavailability: IV 1 mg/kg, PO 30 mg/kg; for Vd: following IV administration, 1 mg/kg, read-out: volume of distribution. As to the method:
Selected compounds were tested for pharmacokinetics in C57BL/6 mice. Compounds 1, 4, 31, 32, 40, 55, 57 and 60 were dosed IV at 1 mg/kg as a formulation of 0.2 mg/mL in 5% DMSO+30% PEG400+65% water and were dosed PO at 30 mg/kg as a formulation of 3 mg/mL in 0.25% MC+5% Tween 80+0.02% SDS. Compound 2 was dosed IV at 1 mg/kg as a formulation of 0.2 mg/mL in 5% ethanol +95% saline and was dosed PO at 30 mg/kg as a formulation of 3 mg/mL in 0.25% MC+5% Tween 80+0.02% SDS.

The target of series [3] is Recombinant AMPK α1/β1/γ1 complex (Homo sapiens (Human), UniProt Q13131+Q9Y478). The series can be described thus: In vitro pAMPK1 kinase activation assay (ADP-Glo, SAMS peptide). The series is classed as biochemical. Conditions: AMPK α1/β1/γ1 pre-activated with CAMKK2; 12-point curve; 15 min compound incubation. As to the method: Compound effect on AMPK enzyme activation was determined in a cell-free format with a 12-point concentration curve. The ADP-Glo detection system was used to determine phosphorylation of a SAMS peptide substrate. Recombinant AMPK α1/β1/γ1 complex was pre-activated by phosphorylation with CAMKK2 followed by incubated with compound for 15 minutes prior to the SAMS phosphorylation reaction. Activity curves and EC50 values were fitted by interpolation to an ATP:ADP standard curve as indicated by the ADP-Glo manufacturer using Prism software.
(ADP-Glo first removes unused ATP, then detects ADP through luciferase.)

The next series concerns blood glucose levels. The series can be described thus: Intraperitoneal (IP) glucose tolerance test in mice. The class given is in vivo. The conditions noted are these: for % Change in Average Total AUC (0-90 min) vs. Vehicle: 30 mpk PO, blood glucose, glucose 2 g/kg IP; for change in blood glucose AUC vs. vehicle / systemic AMPK activation (in words): 30 mpk for all compounds, up to 100 mpk for Compound 4. From the text:
Systemic AMPK target engagement in vivo can be assessed by measuring the glucose levels in blood following administration of compounds, whereby AMPK activation in skeletal muscle leads in a decrease in overall blood glucose levels.
Compounds were formulated in vehicle (0.25% methyl cellulose, 5% Tween 80, 0.02% sodium dodecyl sulfate (SDS) in Hanks' Buffered Salt Solution with Ca^2+ and Mg^2). Immediately prior to compound dosing, the tip of the tail was removed with scissors and a drop of blood was collected onto a glucometer strip (Bayer Contour Next) for a −1 hour blood glucose measure. The mice were then immediately administered vehicle or compound at 10 mL/kg PO. Approximately one hour later, mice were tail bled for a 0 min blood glucose reading, and then immediately after were administered D(+) glucose (2 g/kg, made up in saline) at 5 mL/kg IP. Tail bleeds were then performed on all mice at 20 min, 40 min, 60 min, and 90 min post D(+) glucose administration for blood glucose measures. Area under the curves (AUCs) for blood glucose measures were then calculated for each treatment from 0-90 mins.

Series [4] relates to Chemotherapy-induced Intestinal Injury Model. The series can be described thus: Diarrhea in mouse chemotherapy-induced (5FU) intestinal injury model. The class given is in vivo, BALB/c mice. The conditions noted are these: 5FU 400 mg/kg IP; for Diarrhea Score Day 5 / Diarrhea Score Day 6: score 0-3. As to the method: Compounds were formulated in vehicle (0.25% methyl cellulose, 5% Tween 80, 0.02% sodium dodecyl sulfate (SDS) in Hanks' Buffered Salt Solution with Ca' and Mg'). On day 1, either saline or a 400 mg/kg dose of 5-fluorouracil (5FU) in saline was administered by intraperitoneal injection to BALB/c mice. Starting on day 2, vehicle or compound was administered twice a day by oral gavage. From days 5 to 6 post-5FU, the animals were scored for diarrhea severity once a day. The diarrhea was scored 0-3 as follows: 0—normal consistency (black and solid), 1—soft (black and a bit lighter/yellow), 2—loosely shaped stool (yellowish and somewhat watery), 3—extreme diarrhea (very watery).

Molecules are shown by their SMILES. Structures can show the parent of a compound that is named as a salt.

Recombinant AMPK α1/β1/γ1 complex, sequence (Q13131 whole entry): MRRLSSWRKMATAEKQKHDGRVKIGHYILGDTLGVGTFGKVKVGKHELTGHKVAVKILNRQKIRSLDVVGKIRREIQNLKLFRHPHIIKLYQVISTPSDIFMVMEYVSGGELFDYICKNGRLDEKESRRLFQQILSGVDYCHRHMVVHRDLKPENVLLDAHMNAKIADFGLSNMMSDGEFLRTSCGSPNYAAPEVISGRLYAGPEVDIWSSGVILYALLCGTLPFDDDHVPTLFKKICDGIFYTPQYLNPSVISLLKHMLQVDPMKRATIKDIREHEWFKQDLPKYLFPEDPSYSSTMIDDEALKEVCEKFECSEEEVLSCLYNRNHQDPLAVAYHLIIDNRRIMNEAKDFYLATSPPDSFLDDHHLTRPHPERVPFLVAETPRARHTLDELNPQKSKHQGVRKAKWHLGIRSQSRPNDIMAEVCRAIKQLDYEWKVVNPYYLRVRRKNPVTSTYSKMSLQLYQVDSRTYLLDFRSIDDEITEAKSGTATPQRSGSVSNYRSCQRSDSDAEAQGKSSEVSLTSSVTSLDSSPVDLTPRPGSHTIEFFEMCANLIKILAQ
Recombinant AMPK α1/β1/γ1 complex, sequence (Q9Y478 whole entry): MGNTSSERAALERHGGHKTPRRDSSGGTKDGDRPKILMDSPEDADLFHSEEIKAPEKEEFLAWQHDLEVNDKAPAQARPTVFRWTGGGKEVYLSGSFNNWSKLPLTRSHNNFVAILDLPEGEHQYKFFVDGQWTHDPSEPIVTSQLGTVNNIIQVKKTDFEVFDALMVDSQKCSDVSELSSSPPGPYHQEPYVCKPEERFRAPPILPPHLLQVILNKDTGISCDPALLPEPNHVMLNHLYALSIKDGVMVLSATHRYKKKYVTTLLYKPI
Recombinant AMPK α1/β1/γ1 complex, sequence (P54619 whole entry partner): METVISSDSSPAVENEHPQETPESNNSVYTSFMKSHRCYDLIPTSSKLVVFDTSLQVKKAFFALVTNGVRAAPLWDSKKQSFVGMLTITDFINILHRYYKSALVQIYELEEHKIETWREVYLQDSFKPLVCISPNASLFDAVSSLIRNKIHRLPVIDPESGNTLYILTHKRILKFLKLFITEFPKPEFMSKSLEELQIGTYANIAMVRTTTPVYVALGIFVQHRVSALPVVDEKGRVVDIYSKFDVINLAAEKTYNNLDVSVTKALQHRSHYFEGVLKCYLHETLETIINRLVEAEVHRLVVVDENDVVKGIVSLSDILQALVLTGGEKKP

For `O=C(NC[C@H](O)[C@@H](O)[C@H](O)[C@H](O)CO)c1ccc(-c2ccc(-c3nc4nc(O[C@@H]5CO[C@H]6[C@@H]5OC[C@H]6O)[nH]c4cc3Cl)cc2)cc1` [Compound 1, 4′-(6-chloro-2-(((3R,3aR,6R,6aR)-6-hydroxyhexahydrofuro[3,2-b]furan-3-yl)oxy)-1H-imidazo [4,5-b]pyridin-5-yl)-N-((2S,3R,4R,5R)-2,3,4,5,6-pentahydroxyhexyl)-[1,1′-biphenyl]-4-carboxamide], in “in vitro” (Caco-2, pH 7.4), the Papp A→B at 2 h, 2 μM was < 0.25 ×10⁻⁶ cm/s and the Papp B→A at 2 h, 2 μM is 0.73 ×10⁻⁶ cm/s. Moreover, the efflux ratio at 2 h, 2 μM in the series “in vitro” (Caco-2, pH 7.4, Efflux Ratio) is > 2. Further, the recovery at 2 h, 2 μM in “in vitro” (Caco-2, pH 7.4, Mean Recovery A to B) is < 82.6%. In “in vitro” (Caco-2, pH 7.4, Mean Recovery B to A), the recovery at 2 h, 2 μM stood at 89.9%. The “permeability (in words)” value with Caco-2 cells (Caco-2) is recorded as “low permeability”. Further, the “Efflux Ratio” value in the series on Caco-2 cells (human, Caco-2, 2 h, 2 μM, pH 7.4) is on record as >2.90. In series [1] (0.1 μM), the “reduction of FITC-dextran permeation relative to vehicle” value was found to be 33%. Further, in series [1] (10 μM), the “reduction of FITC-dextran permeation relative to vehicle” value was 35%. In series [2], the bioavailability was < 1% and the Vd is < 5 L/kg. Besides, the EC50 in series [3] worked out at 0.05 nM. Further, in the series on blood glucose levels, the “% Change in Average Total AUC (0-90 min) vs. Vehicle” value is −7.5% and the “change in blood glucose AUC vs. vehicle / systemic AMPK activation (in words)” value is reported as “do not lead to activation of AMPK in skeletal muscle”.

As for `O=P(O)(O)c1ccc(-c2ccc(-c3nc4nc(O[C@@H]5CO[C@H]6[C@@H]5OC[C@H]6O)[nH]c4cc3Cl)cc2)cc1` [Compound 2, (4′-(6-chloro-2-(((3R,3aR,6R,6aR)-6-hydroxyhexahydrofuro[3,2-b]furan-3-yl)oxy)-1H-imidazo[4,5-b]pyridin-5-yl)-[1,1′-biphenyl]-4-yl)phosphonic acid], in series [2], the bioavailability is < 1% and the Vd was < 5 L/kg. In addition, the EC50 in series [3] was 1.4 nM. Besides, in the series on blood glucose levels, the “% Change in Average Total AUC (0-90 min) vs. Vehicle” value is on record as “+6.6%” and the “change in blood glucose AUC vs. vehicle / systemic AMPK activation (in words)” value was “do not lead to activation of AMPK in skeletal muscle”.

For the molecule `O=C(NCC[N+]12CCN(CC1)CC2)c1ccc(-c2ccc(-c3cc4nc(O[C@@H]5CO[C@H]6[C@@H]5OC[C@H]6O)[nH]c4cc3Cl)cc2)cc1` [Compound 32, 1-(2-(4′-(6-chloro-2-(((3R,3aR,6R,6aR)-6-hydroxyhexahydrofuro[3,2-b]furan-3-yl)oxy)-1H-benzo [d]imidazol-5-yl)-[1,1′-biphenyl]-4-carboxamido)ethyl)-1,4-diazabicyclo[2.2.2]octan-1-ium formate], in series [2], the bioavailability is < 1% and the Vd is < 1 L/kg. For the same molecule, in series [4] (20 mpk BID oral), the “Diarrhea Score Day 5, % Change vs. Vehicle” value is reported as −43%; the “Diarrhea Score Day 6, % Change vs. Vehicle” value is on record as −52%; the “Diarrhea Score Day 5” value was determined as 0.63; the “Diarrhea Score Day 6” value is given as 0.88.

Consider `OCC(CO)NCc1ccc(-c2ccc(-c3cc4nc(O[C@@H]5CO[C@H]6[C@@H]5OC[C@H]6O)[nH]c4cc3Cl)cc2)cc1` [Compound 40, 2-(((4′-(6-chloro-2-(((3R,3aR,6R,6aR)-6-hydroxyhexahydrofuro[3,2-b]furan-3-yl)oxy)-1H-benzo[d]imidazol-5-yl)-[1,1′-biphenyl]-4-yl)methyl)amino)propane-1,3-diol], for which, in series [2], the bioavailability was < 10% and the Vd is < 5 L/kg. Moreover, in series [4] (30 mpk BID oral), the “Diarrhea Score Day 5, % Change vs. Vehicle” value is −66%; the “Diarrhea Score Day 6, % Change vs. Vehicle” value is −59%; the “Diarrhea Score Day 5” value was found to be 0.38; the “Diarrhea Score Day 6” value came out at 0.75.

For the molecule `CN1CCN(Cc2ccc(-c3ccc(-c4cc5nc(O[C@@H]6CO[C@H]7[C@@H]6OC[C@H]7O)[nH]c5cc4Cl)cc3)cc2)CC1` [Compound 57, (3R,3aR,6R,6aR)-6-((6-chloro-5-(4′-((4-methylpiperazin-1-yl)methyl)-[1,1′-biphenyl]-4-yl)-1H-benzo[d]imidazol-2-yl)oxy)hexahydrofuro[3,2-b]furan-3-ol], in series [2], the bioavailability was < 10% and the Vd was < 5 L/kg. The EC50 in series [3] amounted to 0.89 nM.

For the molecule `OCC1(CO)CCN(Cc2ccc(-c3ccc(-c4cc5nc(O[C@@H]6CO[C@H]7[C@@H]6OC[C@H]7O)[nH]c5cc4Cl)cc3)cc2)CC1` [Compound 60, (1-((4′-(6-chloro-2-(((3R,3aR,6R,6aR)-6-hydroxyhexahydrofuro[3,2-b]furan-3-yl)oxy)-1H-benzo[d]imidazol-5-yl)-[1,1′-biphenyl]-4-yl)methyl)piperidine-4,4-diyl)dimethanol], in series [2], the bioavailability is < 15% and the Vd was < 5 L/kg. Moreover, in series [4] (30 mpk BID oral), the “Diarrhea Score Day 5, % Change vs. Vehicle” value is on record as −71%; the “Diarrhea Score Day 6, % Change vs. Vehicle” value is −66%; the “Diarrhea Score Day 5” value was 0.38; the “Diarrhea Score Day 6” value amounted to 0.38. Further, the EC50 in series [3] came to 0.85 nM.

In the case of `CC(C)(C)NCC(O)COc1cccc2c1CC(O)C(O)C2` (stereo not shown) [Nadolol, nadolol, reference compound], in the series on Caco-2 cells (Caco-2), the “Mean Recovery A to B” value turned out to be 97.74%. Also, in the series with Caco-2 cells (Caco-2, pH 7.4), the “Mean Papp A to B” value is on record as 0.08 10^−6 cm/s.
